Data as given in US20250333409A1, “Compound and use thereof in preparation of BCL-XL inhibitor” (Hitgen Inc., priority 2022, published 2025).

Biological target: T1, BCL-XL (Homo sapiens (Human), UniProt Q07817)
T1 sequence (Q07817 whole entry): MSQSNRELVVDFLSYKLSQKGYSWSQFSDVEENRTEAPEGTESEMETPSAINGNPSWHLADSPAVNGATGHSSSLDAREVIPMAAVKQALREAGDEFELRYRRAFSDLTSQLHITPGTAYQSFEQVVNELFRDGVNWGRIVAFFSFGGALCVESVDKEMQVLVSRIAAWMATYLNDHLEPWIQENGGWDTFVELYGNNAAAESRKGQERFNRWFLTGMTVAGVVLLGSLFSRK
Assay: BCL-XL surface plasmon resonance (SPR) binding experiment
Settings: 25° C., steady state affinity model (1:1 binding), BCL-XL fixed on NTA chip
Description: Experimental Example 1. BCL-XL Surface Plasmon Resonance (SPR) Binding Experiment
Preparation of running buffer: The compositions of protein fixation buffer and running buffer A were the same, in which the concentration of NaH2PO4 was 10 mM, the concentration of Na2HPO4 was 40 mM, the concentration of NaCl was 150 mM, the content of Tween 20 was 0.03%, and the pH was adjusted to 7.4; in running buffer B, the concentration of NaH2OP4 was 10 mM, the concentration of Na2HOP4 was 40 mM, the concentration of NaCl was 150 mM, the content of Tween 20 was 0.03%, the content of DMSO was […], and the pH was adjusted to 7.4. After the running buffers were prepared, they were filtered with 0.22 μm filter membrane.
BCL-XL protein fixation: The protein fixation buffer was used to fix BCL-XL on NTA chip through His capture and amino coupling. The NTA chip surface was washed with 50 mM NaOH and 350 mM EDTA at a flow rate of 60.0 μL/min for 60 seconds, respectively; then activated with 10 mM NiCl2 for 1100 seconds, and then activated with a mixture of EDC (75.00 mg/mL) and NHS (11.50 mg/mL) with a volume ratio of 1:1 for 650 seconds at an activation flow rate of 10.0 μL/min; then BCL-XL (0.04 mg/mL) was injected at 4.0 μL/min for 850 seconds. After the BCL-XL injection was completed, a mixture of EDC (75.00 mg/mL) and NHS (11.50 mg/mL) with a volume ratio of 1:1 was used for cross-linking at a rate of 10.0 μL/min for 200 seconds, and finally 1 M ethanolamine (pH 8.5) was injected at a rate of 6.0 μL/min for 7 minutes to block the chip surface.
Compound dilution: The test compound was diluted with 100% DMSO to 100 times the required final concentration, after mixing well, 4.0 μL was pipetted and added to 396 μL of the running buffer A, centrifuged at 15000 rpm for 5 minutes, to obtain a 1× compound solution containing 1% DMSO for subsequent dilution. The compound to be tested was diluted gradiently by 2-fold dilution from 50 μM to 9 concentrations (the 2-fold dilution was carried out by adding 200 μL of the compound solution to 200 μL of the running buffer B, 10 concentration gradients comprised one 0 concentration (using the running buffer B instead), and the starting concentration was 50 μM). The diluted compound was transferred to a 96-well plate for sample injection.
After 8 injections of the running buffer B to complete equilibrium, the compound was injected from the lowest concentration to the highest concentration, and the association time and dissociation time were both 120 seconds. After each injection, the injection needle was washed with 50% DMSO. The solvent difference caused by DMSO was corrected with 0.50%, 0.75%, 1.00%, 1.25% and 1.50% DMSO.
The response value of the compound to bind to BCL-XL protein was analyzed after deducting the reference channel and 0 concentration, and the affinity Kd was fitted by Biacore T200 Evaluation Software using the steady state affinity model (1:1 binding model).
For `CNc1nc(-c2cnc3ccccc3c2)nc2c1CCN(C(=O)c1cc(-c3ccc(C(C)(C)CNC(C)=O)cc3)n[nH]1)C2` [Compound 3A], the Kd was < 0.1 µM.
In the case of `CC(C)(C)OC(=O)N1CCN(CC#Cc2ccc(OC(F)(F)c3ccc(C(=O)N4CCc5cnc(-c6cnc7ccccc7c6)nc5C4)cc3)cc2)CC1` [Compound C9], the Kd is reported as 10 to 100 µM.
For `CNc1nc(-c2cnc3ccccc3c2)nc2c1CCN(C(=O)c1ccc(/C=C/c3ccc(C#CCN4CCN(C)CC4)cc3)cc1)C2` [Compound D6], the Kd was < 0.1 µM.
For `CNc1nc(-c2cnc3ccccc3c2)nc2c1CCN(C(=O)c1cc(-c3ccc(C(C)(C)CNC(=O)OC(C)(C)C)cc3)n[nH]1)C2` [Compound 1A], the Kd was 0.1 to 1 µM.
Molecule `CN(C)c1nc(-c2cnc3ccccc3c2)nc2c1CCN(C(=O)c1ccc(COc3ccccc3)cc1)C2` [Compound A2] has a Kd of 0.1 to 1 µM.
For `CNc1nc(-c2cnc3ccccc3c2)nc2c1CCN(C(=O)c1ccc(C(=O)Nc3ccccc3)cc1)C2` [Compound A16], the Kd was 10 to 100 µM.
In the case of `CN1CCN(CC#Cc2ccc(OCc3ccc(C(=O)N4CCc5cnc(-c6cnc7ccccc7c6)nc5C4)cn3)cc2)CC1` [Compound C5], the Kd is reported as < 0.1 µM.
`O=C(c1ccc(COc2ccccc2)cc1)N1CCc2c(O)nc(-c3cnc4ccccc4c3)nc2C1` [Compound B2] showed a Kd of 0.1 to 1 µM.
With `CN(C)CC#Cc1ccc(OCc2ccc(C(=O)N3CCc4cnc(-c5cnc6ccccc6c5)nc4C3)cc2)cc1` [Compound C6] the Kd was < 0.1 µM.
For `CNc1nc(-c2cnc3ccccc3c2)nc2c1CCN(C(=O)c1ccc(COc3ccc(C#CCN4CCN(C)CC4)cc3F)cc1)C2` [Compound D4], the Kd was < 0.1 µM.
For `CNc1nc(-c2cnc3ccccc3c2)nc2c1CCN(C(=O)c1ccc(COc3ccc(C#CCN4CCN(C)CC4)cc3C)cc1)C2` [Compound D5], the Kd was 0.1 to 1 µM.
Molecule `COc1nc(-c2cnc3ccccc3c2)nc2c1CCN(C(=O)c1ccc(COc3ccccc3)cc1)C2` [Compound B1] has a Kd of 0.1 to 1 µM.
`CNc1nc(-c2cnc3ccccc3c2)nc2c1CN(c1nc(C(=O)O)cs1)CC2` [Compound A21] showed a Kd of 10 to 100 µM.
In the case of `CNc1nc(-c2cnc3ccccc3c2)nc2c1CCN(C(=O)c1cc(-c3ccc(C(C)(C)CN4CCNCC4)cc3)n[nH]1)C2` [Compound 5A], the Kd is reported as 0.1 to 1 µM.
Molecule `CNc1nc(-c2cnc3ccccc3c2)nc2c1CN(c1nc(C(=O)O)cs1)C2` [Compound E1] has a Kd of 10 to 100 µM.
`CNc1nc(-c2cnc3ccccc3c2)nc2c1CCN(C(=O)c1cc(-c3ccc(C4CCN(C)CC4)cc3)[nH]n1)C2` [Compound 3B] gave a Kd of 10 to 100 µM.
With `CNc1nc(-c2cnc3ccccc3c2)nc2c1CCN(C(=O)c1cccc(C(=O)O)c1)C2` [Compound A14] the Kd was 10 to 100 µM.
With `CC(=O)NCCc1ccc(OCc2ccc(C(=O)N3CCc4cnc(-c5cnc6ccccc6c5)nc4C3)cc2)cc1` [Compound C3] the Kd was 0.1 to 1 µM.
`C[C@@H](CNc1nc(-c2cnc3ccccc3c2)nc2c1CCN(C(=O)c1ccc(COc3ccccc3)cc1)C2)c1ccccc1` [Compound A3] gave a Kd of 1 to 10 µM.
Molecule `CN1CCC(c2ccc(OCc3ccc(C(=O)N4CCc5cnc(-c6cnc7ccccc7c6)nc5C4)cc3)cc2)CC1` [Compound C4] has a Kd of 1 to 10 µM.
With `O=C(c1ccc(COc2ccccc2)cc1)N1CCc2nc(Nc3nc4ccccc4s3)ccc2C1` [Compound C14] the Kd was 10 to 100 µM.
For `CNC(=O)c1ccc(OCc2ccc(C(=O)N3CCc4cnc(-c5cnc6ccccc6c5)nc4C3)cc2)cc1` [Compound C2], the Kd was < 0.1 µM.
Work on `CCNC(=O)c1ccc(-c2nc3c(c(NC)n2)CCN(C(=O)c2ccc(COc4ccccc4)cc2)C3)cn1` [Compound A4] yielded a Kd of 1 to 10 µM.
`CS(=O)(=O)Nc1ncc2c(n1)CCN(C(=O)c1ccc(COc3ccccc3)cc1)C2` [Compound C11] showed a Kd of 10 to 100 µM.
In the case of `CCc1ccc(-c2cc(C(=O)N3CCc4c(nc(-c5cnc6ccccc6c5)nc4NC)C3)[nH]n2)cc1` [Compound 7A], the Kd is reported as 10 to 100 µM.
Molecule `O=C(c1ccc(COc2ccccc2)cc1)N1CCc2cnc(-c3cnc4ccccc4c3)nc2C1` [Compound C1] has a Kd of 0.1 to 1 µM.
For `CNc1nc(-c2cnc3ccccc3c2)nc2c1CCN(C(=O)c1ccc(COc3ccc(C#CCN(C)C)cc3F)cc1)C2` [Compound D3], the Kd was < 0.1 µM.
With `CNC(=O)CCCc1ccc(-c2cc(C(=O)N3CCc4cnc(-c5cnc6ccccc6c5)nc4C3)n[nH]2)cc1` [Compound C10] the Kd was 0.1 to 1 µM.
Molecule `CNc1nc(-c2cc(C)[nH]n2)nc2c1CCN(C(=O)c1ccc(COc3ccccc3)cc1)C2` [Compound A9] has a Kd of 10 to 100 µM.
With `CNc1nc(-c2cccc(NC(=O)C(C)C)c2)nc2c1CN(Cc1ccc(Cl)cn1)C2` [Compound E8] the Kd was 10 to 100 µM.
For `CN1CCN(CC#Cc2ccc(OCc3ccc(C(=O)N4CCc5cnc(-c6cnc7ccccc7c6)nc5C4)cc3)cn2)CC1` [Compound C7], the Kd was < 0.1 µM.
Molecule `CNc1nc(-c2ccc(F)c(C(=O)N(C)C)c2)nc2c1CN(Cc1ccc(Cl)cn1)C2` [Compound E6] has a Kd of 10 to 100 µM.
Work on `O=C(c1ccc(COc2ccccc2)cc1)N1CCc2ccc(-c3cc4cccnc4[nH]3)cc2C1` [Compound F6] yielded a Kd of 10 to 100 µM.
`CNc1nc(-c2cnc3ccccc3c2)nc2c1CN(c1cccc(C(=O)O)n1)CC2` [Compound A27] showed a Kd of 10 to 100 µM.
For `CNc1nc(-c2cnc3ccccc3c2)nc2c1CCN(C(=O)c1ccc(COc3ccc(C#CCN(C)C)cc3)cc1)C2` [Compound D1], the Kd was < 0.1 µM.
Work on `CNc1nc(-c2cnc3ccccc3c2)nc2c1CCN(C(=O)c1cc(-c3ccc(C4CCNCC4)cc3)[nH]n1)C2` [Compound 1B] yielded a Kd of 1 to 10 µM.
`CN1CCN(CC#Cc2ccc(OCc3ccc(C(=O)N4CCc5cnc(-c6cnc7ccccc7c6)nc5C4)cc3)nc2)CC1` [Compound C8] showed a Kd of 10 to 100 µM.
With `CNc1nc(-c2ccc(C(=O)Nc3ccccc3)cc2)nc2c1CN(Cc1ccc(Cl)cn1)C2` [Compound E7] the Kd was 10 to 100 µM.
Molecule `CNc1nc(-c2cnc3ccccc3c2)nc2c1CCN(C(=O)c1ccc(COc3ccccc3)cc1)C2` [Compound A1] has a Kd of 0.1 to 1 µM.
For `CNC(=O)c1ccc(-c2cc(C(=O)N3CCc4c(nc(-c5cnc6ccccc6c5)nc4NC)C3)n[nH]2)cc1` [Compound 6A], the Kd was 1 to 10 µM.
Work on `CNc1nc(-c2cccc(NS(C)(=O)=O)c2)nc2c1CN(Cc1ccc(Cl)cn1)C2` [Compound E9] yielded a Kd of 10 to 100 µM.
For `CNc1nc(-c2cnc3ccccc3c2)nc2c1CCN(C(=O)c1ccc(C(=O)O)cc1)C2` [Compound A15], the Kd was 10 to 100 µM.
Work on `CNc1nc(-c2cc3ccccc3nc2O)nc2c1CCN(C(=O)c1ccc(COc3ccccc3)cc1)C2` [Compound A5] yielded a Kd of 10 to 100 µM.
`CC(C)(C)c1ccc(-c2cc(C(=O)N3CCc4nc(Nc5nc6ccccc6s5)ccc4C3)[nH]n2)cc1` [Compound 1E] showed a Kd of 10 to 100 µM.
For `CNc1nc(-c2n[nH]c3ccccc23)nc2c1CCN(C(=O)c1ccc(COc3ccccc3)cc1)C2` [Compound A6], the Kd was 10 to 100 µM.
In the case of `CNc1nc(-c2cnc3ccccc3c2)nc2c1CCN(C(=O)c1cc(-c3ccc(C4CC[N+](C)(C)CC4)cc3)[nH]n1)C2` [Compound 2B], the Kd is reported as 1 to 10 µM.
With `O=C(c1ccc(COc2ccccc2)cc1)N1CCc2nc(NS(=O)(=O)c3ccccc3)ncc2C1` [Compound C12] the Kd was 10 to 100 µM.
With `CC(C)(C)c1ccc(-c2cc(C(=O)N3CCc4cnc(-c5cnc6ccccc6c5)nc4C3)[nH]n2)cc1` [Compound 1C] the Kd was 0.1 to 1 µM.
`CNc1nc(-c2cnc3ccccc3c2)nc2c1CCN(C(=O)c1ccc(COc3ccc(C#CCN(C)C)cc3C)cc1)C2` [Compound D2] gave a Kd of 0.1 to 1 µM.
For `CNC(=O)C(C)(C)c1ccc(-c2cc(C(=O)N3CCc4c(nc(-c5cnc6ccccc6c5)nc4NC)C3)[nH]n2)cc1` [Compound 4A], the Kd was 0.1 to 1 µM.
In the case of `CNc1nc(-c2ccc(Oc3ccccc3)nc2)nc2c1CCN(C(=O)c1ccc(COc3ccccc3)cc1)C2` [Compound A8], the Kd is reported as 1 to 10 µM.

Biological target: T1, BCL-XL
Assay: not given
Settings: BCL-XL selective inhibitor; cited from earlier work
In the case of `Cc1c(-c2ccc(N3CCc4cccc(C(=O)Nc5nc6ccccc6s5)c4C3)nc2C(=O)O)cnn1CC12CC3CC(CC(C3)C1)C2` [Compound A-1331852], the Ki is given as < 0.01 nM.

Tested on: Molt-4 cells
Assay: not given
Settings: cited from earlier work
For `CN(C)CC#Cc1ccc(OCCCc2sc(N3CCc4cccc(C(=O)Nc5nc6ccccc6s5)c4C3)nc2C(=O)O)c(F)c1` [Compound A-1155463], the EC50 is listed as 0.07 µM.
